Experimental data reported in patent US20150366839A1, “Schisantherin A for the treatment of neurodegenerative diseases” (priority 2014, published 2015).
Read-outs that look alike come from different tables or passages of the source.

Legend:
zebrafish larvae = assay type: in vivo
Description: (§1) The wild type zebrafish was used for this study.
Zebrafish behaviour was analyzed using a digital video tracking system (Viewpoint ZebraLab system). The system consists of a digital video camera connected to a computer system running the analysis software ZebraLab Man Rev 3.6B.
Moreover, 6-OHDA treatment also markedly altered the swimming behavior of zebrafish. […] Values in FIG. 9 represent the mean±SEM of 12 fish larvae per group of 3-time independent experiments. ###P<0.005 versus control group; *p<0.05, **p<0.01 and *** p<0.005 versus 6-OHDA group. […] The total swimming distance in 10 min travelled by the zebrafish larvae was decreased after exposure to 6-OHDA.

SH-SY5Y cells [1] = assay: MTT neuroprotection against 6-OHDA-induced cytotoxicity; assay type: cell-based, Human; conditions: for protection against 6-OHDA-induced damage (cell viability): 3, 6, 12, 25, 50 and 100 μM for 12 h before 400 μM 6-OHDA 4 h
Description: (§2) Human neuroblastoma SH-SY5Y cells were purchased from the American Type Culture Collection (ATCC, Manassas, Va., USA) and cultured in a humidified 5% (v/v) CO2 atmosphere in 37° C. in Dulbecco's Modified Eagle Medium (DMEM) (Life technologies, NY, USA) supplemented with 10% FBS, 1% penicillin (100 U/mL) and streptomycin (100 μg/mL). All experiments were carried out 48 h after the cells were seeded.
(§3) Cell viability was determined by 3-(4,5-dimethyl-2-thiazolyl) 2,5-diphenyl-2H-tetrazolium bromide (MTT) assay (Sigma-Aldrich, USA). SH-SY5Y cells were seeded in 96-well plates (1×10^4 cells/well) for 48 h. SH-SY5Y cells were pre-treated with different concentrations of the five lignans (i.e. Schizandrin A, Schizandrin B, SC, Schizandrol A and SchiA) for 12 h and the cell viability was checked by MTT assay. Otherwise, SH-SY5Y cells were pre-treated with different concentrations of the five lignans for 12 h and then exposed to 400 μM 6-OHDA for 4 h. Cells were incubated at 37° C. for 4 h in 0.5 mg/mL MTT solution (prepared in serum free DMEM medium). The medium was then removed, and 100 μL of DMSO was added to each well to dissolve the violet-formazan crystals. The absorbance at 570 nm with 655 nm as a reference wavelength was measured by a multi-label counter (Wallac VICTOR3TMV, Perkin Elmer, Netherlands). Cell viability was expressed as a percentage of the value of the cells without 6-OHDA treatment. The LC50 and EC50 were calculated by GraphPad Prism V5.0 (GraphPad Software, Inc., San Diego, Calif.).
To further study the neuroprotective activities of the five lignans against 6-OHDA-induced cytotoxicity, cells were treated with various concentrations (3, 6, 12, 25, 50 and 100 μM) of the tested compounds for 12 h before exposed to 400 μM 6-OHDA for 4 h.

SH-SY5Y cells [2] = assay: MTT neuroprotection against MPP+-induced cell damage; assay type: cell-based; conditions: for protection against MPP+-induced cell damage (cell viability): various concentrations 12 h before MPP+
Description: as §2
In another study, SH-SY5Y cells were seeded in 96-well plates (1×10^4 cells/well) for 48 h. SH-SY5Y cells were pre-treated with different concentrations of the five lignans for 12 h and the cell viability was checked by MTT assay. SH-SY5Y cells were pre-treated with different concentrations of the five lignans for 12 h and then exposed to 2 mM MPP or vehicle for 36 h. Cells were incubated at 37° C. for 4 h in 0.5 mg/mL MTT solution (prepared in serum free DMEM medium). The medium was then discarded and 100 μL of DMSO was added to each well to dissolve the violet-formazan crystals. The absorbance at 570 nm with 655 nm as a reference wavelength was measured by a multi-label counter (Wallac VICTOR3TMV, Perkin Elmer, Netherlands). Cell viability was expressed as a percentage of the value of the cells without MPP treatment. The LC50 and EC50 were calculated by GraphPad Prism V5.0 (GraphPad Software, Inc., San Diego, Calif.).
(§4) To evaluate the cytotoxicity of five selected lignans of S. chinensis, SH-SY5Y cells were treated with various concentrations of the tested compounds for 12 h and the cell viability was measured using the MTT assay. […] To further study the neuroprotective activities of the five lignans in vitro, cells were treated with various concentrations of the tested compounds for 12 h before exposed to MPP^+. […] Values represent mean±S.D. ###P<0.005 versus control group; *p<0.05, **p<0.01 and *** p<0.005 versus MPP group. […] The therapeutic index of SchiA and SC were 14.9 and 8.8, respectively.
The inventors also investigated the contribution of the PI3K/Akt pathway in the neuroprotective effects of SchiA. The inventors measured phosphorylation-Akt (p-Akt) levels after pre-treated with 60 μM SchiA for 12 h and then exposed to 2 mM MPP for another 36 h. […] And MPP^+-induced down-regulation of Akt expressions was inhibited by SchiA treatment. […] To further validate whether the activation of PI3K/Akt signaling pathway, the inventors determined the blocking effect of PI3K/Akt inhibitor such as AKT inhibitor IV on the in vitro neuroprotective effect of SchiA. SH-SY5Y cells were pre-incubated with Akt inhibitor IV (2 μM) for 1 h and then treated with SchiA for 12 h. Drug-treated cells were further treated with 2 mM MPP for another 36 h, MTT assay was used to determinate cell viability.

SH-SY5Y cells [3] = assay: MTT cytotoxicity of the five lignans; assay type: cell-based
Description: as §2, §3
To evaluate the cytotoxicity of five selected lignans of S. chinensis, SH-SY5Y cells were treated with various concentrations of the tested compounds for 12 h and the cell viability was measured using the MTT assay.
as §4

DA neurons in zebrafish = assay: Anti-TH whole-mount immunostaining, 6-OHDA-induced DA neuron loss; assay type: in vivo; conditions: 3 μM positive control, 250 μM 6-OHDA, 2 days
Description: as §1
Zebrafish at one dpf were exposed to 250 μM 6-OHDA in the presence or absence of 10 μM Schi A or 3 μM nomifensine (Nom, a DAT (dopamine transporter) inhibitor used as a positive control) for 2 days. Then zebrafish were collected for immunostaining to detect the DA neurons. Zebrafish were fixed in 4% paraformaldehyde in PBS for 30 min, rinsed, and stored at −20° C. in 100% MtOH. Whole-mount immunostaining was done by standard methods (Zhang, Cheang et al. 2011). Briefly, paraformaldehyde fixed samples were blocked (2% goat serum and 0.1% BSA in PBST,) for 1 h at room temperature. A mouse monoclonal anti-tyrosine hydroxylase antibody (1:200 diluted in blocking buffer) was used as the primary antibody and incubated overnight with the sample at 4° C. […] Semi-quantification TH^+ cells were assessed by an investigator blinded to drug treatment history of zebrafish using Image-Pro Plus 6.0 software (Media Cybernetics, Silver Spring, Md., USA). Results are expressed as percentage of area of TH^+ cells in untreated control group.
To further evaluate the neuroprotective effect of SchiA in vivo, the inventors examined the DA neurons in zebrafish by whole-mount immunofluorescent staining with an antibody against tyrosine hydroxylase (TH). […] Data is expressed as percentage of the control group. […]

[4] = tested on: TH-positive neurons in the SNpc; assay type: in vivo, C57BL/6 mice; conditions: 10 mg/kg/day i.g. positive control, then MPTP
Description: Male C57BL/6 mice (20±2 g body weight, 6-8 weeks of age) were purchased from the Laboratory Animal Center of Guangdong Province and were fed six animals per cage, under a 12 h light/dark cycle with ad libitum access to food and water. Mice were handled daily and allowed 3 days to acclimate before each treatment. Six groups of mice (n=7/group, total 42 mice) were assigned for the neuroprotective study in vivo. SchiA at different concentrations (30, 100 or 300 mg/kg/day), positive control drug (Selegiline, 10 mg/kg/day) or vehicle (Tween-80/ml propylene glycol/alcohol/5% PVA, 1:1:1:17, v/v/v/v) were administered by intragastric gavage (i.g.) daily for 14 days. Then mice were injected by intraperitoneal (i.p.) with 30 mg/kg MPTP hydrochloride (Sigma-Aldrich) or physiological saline daily on days 15-19 (total 5 days). In order to allow for the full conversion of MPTP to its active metabolite MPP^+, a further 3 days of resting period followed (Levites, Weinreb et al. 2001). All animal experiments were conducted according to the ethical guidelines for animal experiment of Jinan University. The experimental protocols were approved by the Ethics Committee for Animal Experiments of Jinan University (permit number 20110810).
Three days after MPTP treatment, animals were anesthetized by i.p. administration of […] chloral hydrate (10% (w/v) dissolved in distilled water) and perfused intracardially with 100 mL PBS (0.1 mmol/L, pH 7.4) followed by 150 mL 4% paraformaldehyde (PFA) in PBS. After intracardial perfusion, brains were collected and post-fixed in 4% PFA for another 24 h at 4° C., embedded in paraffin, and cut into 6 μm coronal sections encompassing the entire SNpc. As the decrease of TH-positive neurons in response to MPTP treatment is the most prominent at medial levels of the SNpc (Hayley, Crocker et al. 2004), the inventors selected the sections from the area encompassed between −3.08 and −3.20 from bregma to perform immunohistochemisty. Immunohistochemistry of brain tissues was performed as previously described (He, Yamauchi et al. 2008; Yokoyama, Takagi et al. 2008) with minor modifications. Sections were deparaffinized in xylene and rehydrated in a graded ethanol series. […] Non-specific protein binding was blocked with 10% bovine serum in PBS (0.01 M, pH 7.4). Between each treatment, the slides were washed at least three times with deionized water for 5 minutes. […] The results were analyzed by counting the numbers of TH-positive cells at ×10 magnifications on a stereomicroscope (BX51, Olympus Corp. Japan). TH-positive cells in 6 position-matched sections of each mouse were counted manually by operator who was blinded to the drug treatment. […]

Row | Molecule | protection against 6-OHDA-induced damage (cell viability) (SH-SY5Y cells [1]) | protection against MPP+-induced cell damage (cell viability) (SH-SY5Y cells [2]) | CC50 (SH-SY5Y cells [3]) | further results
1 | N[C@@H](Cc1ccc(O)c(O)c1)C(=O)O [L-dopa] |  |  |  | deficit of locomotor activity of 6-OHDA-treated zebrafish (zebrafish larvae; 150 μM positive control with 6-OHDA): rescued the deficit of locomotor activity of 6-OHDA-treated zebrafish to normal
2 | COc1cc2c(c(OC)c1OC)-c1c(cc3c(c1OC)OCO3)CC(C)C(C)C2 (stereo not shown) [Schizandrin B, reference compound] | did not show protective effects | did not show protective effects | 189 µM | 
3 | AKT inhibitor IV [reference compound] |  |  |  | effect on the protective effect of SchiA on MPP+-induced cytotoxicity (SH-SY5Y cells [2]; 2 μM 1 h pre-incubation, then SchiA 12 h, 2 mM MPP+ 36 h, MTT): clearly abrogate the protective effect of SchiA
4 | CN1Cc2c(N)cccc2C(c2ccccc2)C1 (stereo not shown) [Nomifensine, nomifensine, reference compound] |  |  |  | 6-OHDA-induced dopaminergic neuron loss (area of TH+ cells) (DA neurons in zebrafish): considerable protection; deficit of locomotor activity of 6-OHDA-treated zebrafish (zebrafish larvae; 3 μM positive control with 6-OHDA): rescued the deficit of locomotor activity of 6-OHDA-treated zebrafish to normal
5 | COc1c2c(cc3c1-c1c(cc4c(c1OC)OCO4)C[C@H](C)[C@H](C)C3)OCO2 [SC, Schizandrin C] | protected SH-SY5Y cells against 6-OHDA-induced damage in a dose-dependent manner | protect against MPP^+-induced cell damage in a dose-dependent manner |  | EC50 (SH-SY5Y cells [1]; pre-treated 12 h, then 400 μM 6-OHDA 4 h): 15.3 µM; EC50 (SH-SY5Y cells [2]; pre-treated 12 h, then 2 mM MPP+ 36 h): 15.3 µM; CC50 (SH-SY5Y cells [3]; treated 12 h, MTT, read-out: LC50 (the source's name)): 135 µM
6 | C#CCN(C)[C@H](C)Cc1ccccc1 [selegiline, reference compound] |  |  |  | TH-positive neurons in SNpc [4]: 80±15 cells/section
7 | COc1cc2c(c(OC)c1OC)-c1c(cc(OC)c(OC)c1OC)C[C@H](C)[C@H](C)C2 [Schizandrin A, reference compound] | did not show protective effects | did not show protective effects | 233 µM | 
8 | COc1cc2c(c(OC)c1OC)-c1c(cc(OC)c(OC)c1OC)C[C@](C)(O)[C@@H](C)C2 [Schizandrol A, reference compound] | did not show protective effects | did not show protective effects | 155 µM | 
